# Test results from ChEMBL document CHEMBL3734664, “Noncovalent Mutant Selective Epidermal Growth Factor Receptor Inhibitors: A Lead Optimization Case Study” (J Med Chem, 2015).
# Legend:
# NCI-H1975 = test: Antiproliferative activity against human NCI-H1975 cells expressing EGFR T790M/L858R double mutant after 72 hrs by luminescence assay; format: functional, cell-based; details: NCI-H1975, 72 h
# [1] = biological target: T1, Epidermal growth factor receptor (Homo sapiens, UniProt P00533)
# physchem = details: buffer, pH 7.4, logD
# Description: (§1) Lipophilicity, log D of the compound at pH 7.4 by microscale shake flask method
# [2] = biological target: Epidermal growth factor receptor (Homo sapiens, UniProt P00533, L858R/T790M)
# Chain of Epidermal growth factor receptor (Homo sapiens, UniProt P00533, L858R/T790M) (P00533 25-1210 T790M/L858R limits assumed): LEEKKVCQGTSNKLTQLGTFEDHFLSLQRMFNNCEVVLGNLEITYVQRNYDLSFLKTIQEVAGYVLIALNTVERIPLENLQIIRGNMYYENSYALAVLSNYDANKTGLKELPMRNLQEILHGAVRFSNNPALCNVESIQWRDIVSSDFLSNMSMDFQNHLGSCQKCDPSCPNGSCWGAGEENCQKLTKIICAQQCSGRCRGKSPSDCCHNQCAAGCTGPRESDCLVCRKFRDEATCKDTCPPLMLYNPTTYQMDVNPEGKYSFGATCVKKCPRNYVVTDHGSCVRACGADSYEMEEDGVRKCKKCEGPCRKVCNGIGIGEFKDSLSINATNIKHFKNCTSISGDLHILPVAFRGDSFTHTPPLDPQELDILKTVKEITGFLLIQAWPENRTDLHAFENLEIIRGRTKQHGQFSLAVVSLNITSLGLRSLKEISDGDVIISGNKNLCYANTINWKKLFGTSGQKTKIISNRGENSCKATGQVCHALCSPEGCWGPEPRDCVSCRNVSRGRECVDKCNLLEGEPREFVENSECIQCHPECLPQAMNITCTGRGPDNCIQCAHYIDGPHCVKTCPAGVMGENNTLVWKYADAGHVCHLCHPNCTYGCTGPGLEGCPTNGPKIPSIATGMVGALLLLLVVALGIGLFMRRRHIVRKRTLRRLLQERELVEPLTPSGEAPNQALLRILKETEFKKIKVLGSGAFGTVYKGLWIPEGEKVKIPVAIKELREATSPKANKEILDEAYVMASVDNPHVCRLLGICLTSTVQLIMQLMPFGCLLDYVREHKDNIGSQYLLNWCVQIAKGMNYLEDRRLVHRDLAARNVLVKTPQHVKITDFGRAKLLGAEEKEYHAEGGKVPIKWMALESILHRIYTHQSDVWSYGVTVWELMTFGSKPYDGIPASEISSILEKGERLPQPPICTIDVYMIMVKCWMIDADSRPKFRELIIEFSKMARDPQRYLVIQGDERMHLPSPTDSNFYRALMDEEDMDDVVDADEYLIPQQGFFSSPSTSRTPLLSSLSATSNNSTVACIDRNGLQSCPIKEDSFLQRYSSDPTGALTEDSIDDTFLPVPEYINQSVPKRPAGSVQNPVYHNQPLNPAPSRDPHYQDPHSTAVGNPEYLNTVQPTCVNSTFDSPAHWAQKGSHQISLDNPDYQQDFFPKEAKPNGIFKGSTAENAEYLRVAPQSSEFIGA
# [3] = biological target: T1, Epidermal growth factor receptor; remark: listed apart in the source
# Description: Inhibition of EGFR phosphorylation in human NCI-H292 cells preincubated for 1 hr followed by stimulation with EGF for 8 mins by electrochemiluminescent immunoassay
# [4] = Plasma clearance in rat at 0.5 mg/kg, iv; format: ADME, organism-based
# Rattus norvegicus [5] = test: Unbound plasma clearance in rat at 0.5 mg/kg, iv; format: ADME, organism-based; details: in vivo
# [6] = Plasma clearance in rat at 1 mg/kg, iv; format: ADME, organism-based
# Rattus norvegicus [7] = test: Unbound plasma clearance in rat at 1 mg/kg, iv; format: ADME, organism-based; details: in vivo
# Hepatocyte [8] = test: Stability in human hepatocytes; format: ADME, cell-based
# Liver microsome [9] = test: Stability in human liver microsomes; format: ADME
# [10] = buffer, pH 7.4
# Description: as §1
# [11] = Plasma clearance in rat at 5 mg/kg, iv; format: ADME, organism-based
# Rattus norvegicus [12] = test: Unbound plasma clearance in rat at 5 mg/kg, iv; format: ADME, organism-based; details: in vivo
# [13] = biological target: T2, Epidermal growth factor receptor (Homo sapiens, UniProt P00533, 746-750DEL/T790M); test: Inhibition of human EGFR T790M/del (746 to 750) deletion mutant using Fl-EEPLYWSFPAKKK-CONH2 as substrate preincubated for 30 mins followed by addition of substrate measured after 30 mins by Morrison plot analysis; format: protein assay; details: read-out: Ki(app)
# T2 sequence (P00533 whole entry, looked up, stated change not applied): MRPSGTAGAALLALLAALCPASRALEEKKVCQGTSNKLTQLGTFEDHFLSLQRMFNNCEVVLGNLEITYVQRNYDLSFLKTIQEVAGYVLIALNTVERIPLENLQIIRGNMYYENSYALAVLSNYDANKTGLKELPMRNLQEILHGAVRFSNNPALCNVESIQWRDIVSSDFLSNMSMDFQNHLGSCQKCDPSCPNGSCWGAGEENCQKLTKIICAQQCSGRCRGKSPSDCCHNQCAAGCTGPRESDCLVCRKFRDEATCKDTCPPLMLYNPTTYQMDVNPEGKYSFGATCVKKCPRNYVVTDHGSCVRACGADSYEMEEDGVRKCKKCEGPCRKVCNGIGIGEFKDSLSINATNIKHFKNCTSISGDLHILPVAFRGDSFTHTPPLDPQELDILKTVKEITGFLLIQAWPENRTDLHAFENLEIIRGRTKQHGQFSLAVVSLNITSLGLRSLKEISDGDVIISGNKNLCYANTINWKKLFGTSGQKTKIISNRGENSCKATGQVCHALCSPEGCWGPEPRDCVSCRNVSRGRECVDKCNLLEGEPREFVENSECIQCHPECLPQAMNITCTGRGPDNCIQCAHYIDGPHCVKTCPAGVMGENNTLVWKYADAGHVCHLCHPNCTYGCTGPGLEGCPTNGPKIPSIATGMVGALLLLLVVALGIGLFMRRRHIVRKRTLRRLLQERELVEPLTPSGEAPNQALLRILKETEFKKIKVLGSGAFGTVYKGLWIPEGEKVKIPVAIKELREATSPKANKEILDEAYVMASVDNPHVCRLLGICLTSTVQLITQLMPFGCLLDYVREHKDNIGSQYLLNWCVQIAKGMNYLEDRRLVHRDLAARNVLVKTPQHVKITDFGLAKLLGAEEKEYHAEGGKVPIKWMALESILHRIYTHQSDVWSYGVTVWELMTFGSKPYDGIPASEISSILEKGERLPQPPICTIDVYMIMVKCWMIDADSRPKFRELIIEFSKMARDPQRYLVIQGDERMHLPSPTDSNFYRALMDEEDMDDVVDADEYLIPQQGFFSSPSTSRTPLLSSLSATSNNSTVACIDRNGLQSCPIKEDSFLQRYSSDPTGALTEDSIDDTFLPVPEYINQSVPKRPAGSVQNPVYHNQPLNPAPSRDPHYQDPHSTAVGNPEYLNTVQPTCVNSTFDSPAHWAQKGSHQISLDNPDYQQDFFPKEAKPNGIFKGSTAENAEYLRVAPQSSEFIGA
# Liver microsome [14] = test: Drug metabolism in rat liver microsomes assessed as cis-3-Fluoro-1-{4-[2-((R)-1-hydroxyethyl)-1-((S)-2,2,2-trifluoro-1-methylethyl)-1Himidazo[4,5-c]pyridin-6-ylamino]pyrimidin-2-yl}piperidin-4-ol; format: ADME
# Hepatocyte [15] = test: Drug metabolism in rat hepatocytes assessed as cis-3-Fluoro-1-{4-[2-((R)-1-hydroxyethyl)-1-((S)-2,2,2-trifluoro-1-methylethyl)-1Himidazo[4,5-c]pyridin-6-ylamino]pyrimidin-2-yl}piperidin-4-ol; format: ADME, cell-based
# NCI-H292 = test: Antiproliferative activity against human NCI-H292 cells expressing wild type EGFR after 72 hrs by luminescence assay; format: functional, cell-based; details: NCI-H292, 72 h
# [16] = Antiproliferative activity against erlotinib-resistant human PC9 cells expressing EGFR with ex19del and T790M mutations after 72 hrs by luminescence assay; format: functional, cell-based; details: PC-9, 72 h
# [17] = Half life in rat; format: ADME, organism-based; details: in vivo
# [18] = Volume of distribution at steady state in rat; format: ADME, organism-based; details: in vivo, read-out: Vdss
# [19] = Oral bioavailability in rat; format: ADME, organism-based; details: in vivo
# [20] = biological target: T2, Epidermal growth factor receptor; test: Inhibition of EGFR T790M/del (746 to 750) deletion mutant phosphorylation in erlotinib-resistant human PC9 cells preincubated for 1 hr followed by stimulation with EGF for 8 mins by electrochemiluminescent immunoassay; format: cell-based, PC-9
# T1 sequence (P00533 whole entry): as the sequence (P00533 whole entry, looked up, stated change not applied) above
Structure (SMILES),Ki [1] [µM],logD (physchem),Ki [2] [µM],also measured
COC1CCN(c2nccc(Nc3cc4[nH]cnc4cn3)n2)CC1,1.2,1.9,,EC50 (NCI-H1975): 7 µM
Cc1nc2cnc(Nc3ccnc(N4CC[C@H](O)C(F)(F)C4)n3)cc2n1C(C)C (racemic),> 0.403,2.6,0.0095,EC50 (NCI-H1975): 1.7 µM; IC50 [3]: > 10 µM
COC1(CCO)CCN(c2nccc(Nc3cc4c(cn3)nc(C)n4C(C)C)n2)CC1,,2,0.05,
COC1CCN(c2nccc(Nc3cc4c(cn3)ncn4C3CC3)n2)CC1,,2.3,0.087,
COC1CCN(c2nccc(Nc3cc4c(cn3)ncn4C3CCCC3)n2)CC1,,2.9,,
Cc1nc2cnc(Nc3ccnc(/C=C/C(C)(C)O)n3)cc2n1C(C)C,> 2.5,2,,clearance [4]: 50 mL/min/kg; CL free (Rattus norvegicus [5]): 200 mL/min/kg
CO[C@H]1CCN(c2nccc(Nc3cc4c(cn3)nc(CO)n4C(C)C)n2)C[C@H]1F (racemic),0.15,,0.0043,clearance [6]: 107 mL/min/kg; CL free (Rattus norvegicus [7]): 584 mL/min/kg; EC50 (NCI-H1975): 0.88 µM; IC50 [3]: > 10 µM
COC1CCN(c2nccc(Nc3cc4c(cn3)ncn4C(C)C(F)(F)F)n2)CC1 (racemic),,2.7,0.027,
COC1CCN(c2nccc(Nc3cc4c(cn3)ncn4C3CCOCC3)n2)CC1,,2.1,0.076,
Cc1nc2cnc(Nc3ccnc(N4CCC(C)(C(N)=O)C4)n3)cc2n1C(C)C (stereo not drawn),0.681,1.6,0.124,Stability (Hepatocyte [8]): Stable; Stability (Liver microsome [9]): Stable
COC1CCN(c2nccc(Nc3cc4c(cn3)ncn4C3CCCCC3)n2)CC1,,3.4,0.018,
Cc1nc2cnc(Nc3ccnc(/C=C/C(C)(C)C(N)=O)n3)cc2n1C(C)C,> 1.5,2.2,0.196,Stability (Hepatocyte [8]): Stable; Stability (Liver microsome [9]): Stable
CO[C@H]1CCN(c2nccc(Nc3cc4c(cn3)nc(C)n4C(C)C)n2)C[C@H]1F (racemic),1.08,2.3,0.0027,EC50 (NCI-H1975): 0.56 µM; IC50 [3]: > 10 µM
CC(C)n1c(CO)nc2cnc(Nc3ccnc(N4CC[C@H](O)[C@H](F)C4)n3)cc21 (racemic),> 0.00053,1.6,0.016,clearance [4]: 151 mL/min/kg; CL free (Rattus norvegicus [5]): 382 mL/min/kg; EC50 (NCI-H1975): > 10 µM; IC50 [3]: > 10 µM
Cc1nc2cnc(Nc3ccnc(N4CCC(S(C)(=O)=O)CC4)n3)cc2n1C(C)C,,1.6,0.064,Stability (Hepatocyte [8]): Stable; Stability (Liver microsome [9]): Stable; clearance [4]: 165 mL/min/kg; CL free (Rattus norvegicus [5]): 934 mL/min/kg
CC(C)n1cnc2cnc(Nc3ccnc(N4CCC(C(N)=O)CC4)n3)cc21,,1.7,0.151,
COC1CCN(c2nccc(Nc3cc4c(cn3)ncn4C3CCOC3)n2)CC1 (racemic),,1.8,0.149,
CCn1cnc2cnc(Nc3ccnc(N4CCC(OC)CC4)n3)cc21,,2.4,0.201,
COC1CCN(c2nccc(Nc3cc4c(cn3)ncn4C3CCC3)n2)CC1,,2.8,0.048,

Structure (SMILES),Ki [1] [µM],logD (physchem),Ki [2] [µM],also measured
CO[C@H]1CCN(c2nccc(Nc3cc4c(cn3)nc(CO)n4C(C)C)n2)CC1(F)F (racemic),,2.8,,EC50 (NCI-H1975): 2.38 µM
Cc1nc2cnc(Nc3ccnc(SCC(C)(C)C(N)=O)n3)cc2n1C(C)C,> 2.5,1.9,0.658,
COC1(CO)CCN(c2nccc(Nc3cc4c(cn3)nc(C)n4C(C)C)n2)CC1,,1.7,0.024,Stability (Liver microsome [9]): Stable
COC1(CN(C)C)CCN(c2nccc(Nc3cc4c(cn3)nc(C)n4C(C)C)n2)CC1,,1.5,0.492,
CCC(C)n1cnc2cnc(Nc3ccnc(N4CCC(OC)CC4)n3)cc21 (racemic; form 1),,2.8,0.014,
COCC1(OC)CCN(c2nccc(Nc3cc4c(cn3)nc(C)n4C(C)C)n2)CC1,,2.4,0.077,
COC1CCN(c2nccc(Nc3cc4c(cn3)ncn4CC(F)(F)F)n2)CC1,,2.8,0.071,
CCC(C)n1cnc2cnc(Nc3ccnc(N4CCC(OC)CC4)n3)cc21 (racemic; form 2),,,0.017,logD [10]: 2.9
COC1(CCN)CCN(c2nccc(Nc3cc4c(cn3)nc(C)n4C(C)C)n2)CC1,,0.1,,Stability (Liver microsome [9]): Stable
CO[C@H]1CCN(c2nccc(Nc3cc4c(cn3)nc(CO)n4C(C)C)n2)C[C@@H]1F (racemic),0.54,,0.057,
Cc1nc2cnc(Nc3ccnc(N4CC[C@H](O)[C@H](F)C4)n3)cc2n1C(C)C (racemic),0.91,1.5,0.013,clearance [11]: 90 mL/min/kg; CL free (Rattus norvegicus [12]): 545 mL/min/kg; EC50 (NCI-H1975): 1.6 µM
CO[C@H]1CCN(c2nccc(Nc3cc4c(cn3)nc(C)n4C(C)C)n2)C[C@@H]1F (racemic),1.84,2.5,0.044,
COC1CCN(c2nccc(Nc3cc4c(cn3)nc(CO)n4C(C)C)n2)CC1,0.4,2.3,0.019,EC50 (NCI-H1975): 6.5 µM
Cc1nc2cnc(Nc3ccnc(OCC(C)(C)S(C)(=O)=O)n3)cc2n1C(C)C,2.1,1.6,0.052,Stability (Hepatocyte [8]): Stable; Stability (Liver microsome [9]): Stable; clearance [4]: 53 mL/min/kg; CL free (Rattus norvegicus [5]): 156 mL/min/kg
Cc1nc2cnc(Nc3ccnc(NCC(C)(C)S(C)(=O)=O)n3)cc2n1C(C)C,1.82,1.4,,Stability (Hepatocyte [8]): Stable; Stability (Liver microsome [9]): Stable; clearance [6]: 158 mL/min/kg; CL free (Rattus norvegicus [7]): 707 mL/min/kg
Cc1nc2cnc(Nc3ccnc(N4CCC(O)CC4)n3)cc2n1C(C)C,,1.8,0.034,Stability (Hepatocyte [8]): Unstable
CO[C@H]1CCN(c2nccc(Nc3cc4c(cn3)nc([C@@H](C)O)n4[C@H](C)C(F)(F)F)n2)C[C@H]1F,0.122,2.2,0.0011,Ki [13]: 0.007 µM; clearance [11]: 23 mL/min/kg; CL free (Rattus norvegicus [12]): 334 mL/min/kg; Drug metabolism (Liver microsome [14]): metabolite_detected; Drug metabolism (Hepatocyte [15]): metabolite_detected; EC50 (NCI-H1975): 0.112 µM; EC50 (NCI-H292): 7.8 µM; EC50 [16]: 0.09 µM; half-life [17]: 1.7 h; Vd [18]: 3.7 L/kg; bioavailability [19]: 85%; IC50 [20]: 0.027 µM; IC50 [3]: > 10 µM
CCC(C)n1cnc2cnc(Nc3ccnc(N4CCC(OC)CC4)n3)cc21 (racemic; form 3),,,0.022,
